# System: MRSA
# Experiment: CFU counts of MRSA plated on agar with antibiotic after sub-lethal NIMELS laser (Examples IX-XII)
# Format: cell-based, Staphylococcus aureus
# Conditions: antibiotic at resistant MIC just below effectiveness level
# From the text: The following parameters illustrate the general bacterial methods according to the invention as applied to MRSA for the in vitro Experiments V and VIII-XII.
# The null hypothesis is μ1−μ2=0 and μ1−μ3=0 where:
# a) μ1 is sub-lethal dosimetry from the NIMEL laser system on MRSA as a control and;
# The null hypothesis is μ1−μ2=0 and μ1−μ3=0 where: • a) μ1 is sub-lethal dosimetry from the NIMEL laser system on MRSA as a control and; • b)μ2 is the same sub-lethal dosimetry from the NIMEL laser system on MRSA with the addition of tetracycline at resistant MIC just below effectiveness level and; • c) μ3 is the same sub-lethal dosimetry from the NIMEL laser system on MRSA with the addition of rifampin at resistant MIC just below effectiveness level.
# The null hypothesis is μ1−μ2=0 and μ1−μ3=0 where: a) μ1 is sub-lethal dosimetry from the NIMEL laser system on MRSA as a control and; b)μ2 is the same sub-lethal dosimetry from the NIMEL laser system on MRSA with the addition of methicillin at resistant MIC just below effectiveness level and; […]
structure (smiles),measurement,setting,value
COc1cccc(OC)c1C(=O)N[C@@H]1C(=O)N2[C@@H]1SC(C)(C)[C@@H]2C(=O)O [Methicillin],effect of sub-lethal NIMELS irradiation on antibiotic action against MRSA colonies (words),,successful reversal of MRSA resistance
same,effect of sub-lethal NIMELS irradiation on antibiotic action against MRSA colonies (words),listed as methicillin,being potentiated by the NIMELS effect

# From patent publication US20110295343A1, “NEAR-INFRARED ELECTROMAGNETIC MODIFICATION OF CELLULAR STEADY-STATE MEMBRANE POTENTIALS” (priority 2008, published 2011)
